# ChEMBL document CHEMBL1201862, “PubChem BioAssay data set” (2004)
#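 Cells were grown in 96-well plates and exposed to each compound for 48 hours at five concentrations; endpoints were interpolated linearly between bracketing concentrations, or set to the highest concentration if not reached. GI50 marks 50% less growth.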 Calls of active or inactive are those of the source. Rule as the data show it: active = GI50 up to about 1.1 µM and inactive = higher.
# Columns and labels:
# Assay in all cases: inhibition of tumour cell growth, NCI panel, 48 h
# SNB-75 = test system: SNB-75
# NCI-H23 = test system: NCI-H23
# HT-29 = test system: HT-29
# SN12C = test system: SN12C
# MCF7 = test system: MCF7
# HL-60 = test system: HL-60
# NCI/ADR-RES = test system: NCI/ADR-RES
# K562 = test system: K562
# Hs-578T = test system: Hs-578T
# MOLT-4 = test system: MOLT-4
# SK-OV-3 = test system: SK-OV-3
# PC-3 = test system: PC-3
# OVCAR-8 = test system: OVCAR-8
# HCC 2998 = test system: HCC 2998
# SNB-19 = test system: SNB-19
# SK-MEL-5 = test system: SK-MEL-5
# SR = test system: SR
# NCI-H522 = test system: NCI-H522
# SK-MEL-28 = test system: SK-MEL-28
# M14 = test system: M14
Structure (SMILES),GI50 (SNB-75),GI50 (NCI-H23),GI50 (HT-29),GI50 (SN12C),GI50 (MCF7),GI50 (HL-60),GI50 (NCI/ADR-RES),GI50 (K562),GI50 (Hs-578T),GI50 (MOLT-4),GI50 (SK-OV-3),GI50 (PC-3),GI50 (OVCAR-8),GI50 (HCC 2998),GI50 (SNB-19),GI50 (SK-MEL-5),GI50 (SR),GI50 (NCI-H522),GI50 (SK-MEL-28),GI50 (M14)
CNc1c2cccc(C)c2nc2c(C(=O)NCCN(C)C)cccc12,0.051 µM (active),0.107 µM (active),< 0.0197 µM (active),0.0282 µM (active),< 0.045 µM (active),0.0847 µM (active),0.265 µM (active),0.0249 µM (active),0.0957 µM (active),< 0.0208 µM (active),0.252 µM (active),0.158 µM (active),0.07 µM (active),0.0322 µM (active),0.0805 µM (active),0.18 µM (active),< 0.0288 µM (active),< 0.01 µM (active),0.45 µM (active),0.207 µM (active)
N=C(N)N/N=C/c1c(-c2ccc([N+](=O)[O-])cc2)nc2sc(Cl)cn12,0.593 µM (active),0.841 µM (active),1.18 µM (inactive),1.31 µM (inactive),0.52 µM (active),1.38 µM (inactive),1.46 µM (inactive),0.239 µM (active),1.03 µM (active),0.247 µM (active),1.8 µM (inactive),1.12 µM (active),0.479 µM (active),0.26 µM (active),0.667 µM (active),0.891 µM (active),0.0731 µM (active),1.48 µM (inactive),1.69 µM (inactive),1.37 µM (inactive)
CSc1c2c(C)n[nH]c2nn1-c1ccccc1,> 100 µM (inactive),> 100 µM (inactive),36 µM (inactive),> 100 µM (inactive),92 µM (inactive),29.6 µM (inactive),> 100 µM (inactive),47.5 µM (inactive),> 100 µM (inactive),42.6 µM (inactive),> 100 µM (inactive),58.7 µM (inactive),27.4 µM (inactive),57.8 µM (inactive),> 100 µM (inactive),> 100 µM (inactive),20.2 µM (inactive),5.01 µM (inactive),> 100 µM (inactive),81.7 µM (inactive)
O=P(O)(O)OP(=O)(O)O,> 100 µM (inactive),> 100 µM (inactive),> 100 µM (inactive),> 100 µM (inactive),> 100 µM (inactive),> 100 µM (inactive),> 100 µM (inactive),> 100 µM (inactive),> 100 µM (inactive),> 100 µM (inactive),> 100 µM (inactive),> 100 µM (inactive),> 100 µM (inactive),> 100 µM (inactive),> 100 µM (inactive),> 100 µM (inactive),> 100 µM (inactive),> 100 µM (inactive),> 100 µM (inactive),> 100 µM (inactive)
